# Test results from patent US10947260B2, “Phosphinolactone derivatives and pharmaceutical uses thereof” (INSTITUT NATIONAL DE LA SANTE ET DE LA RECHERCHE MEDICALE …, priority 2016, dated 2021).
# Tests used:
# [1] = test system: mice treated with scopolamine; test: Spontaneous alternation in Y-maze, scopolamine amnesia model; type: in vivo; settings: IP; scopolamine model
# Method: FIG. 5: Anti-amnesic effect of compound 3b in mice treated with scopolamine: (a, b) spontaneous alternation in Y-maze, and (c, d) passive avoidance. The mice were given compound 3b (0.03-1.5 mg/kg IP) 10 min before scopolamine (0.5 mg/kg SC), 20 min before the Y-maze session or passive avoidance training. Y-maze test: (a) spontaneous alternation and (b) total number of arm entries; retention of passive avoidance: (c) step-through latency and (d) escape latency. ANOVA: F(6.94)=5.32, p<0.0001 at (a); F(6.94)=10.6, p<0.0001 at (b); H=31.4, p<0.0001 at (c); H=24.3, p<0.001 at (d); n=12-19 per group. *p<0.05, **p<0.01, ***p<0.001 compared with group (Sc.Aβ+V); #p<0.05, ##p<0.01, ###p<0.001 compared with group (Aβ25-35+V); Dunnett test at (a, b) and Dunn at (c, d).
# FIG. 6: Analysis of the antagonism of anti-amnesic effects of compound 3b in mice treated with scopolamine: (a, c, e) spontaneous alternation in Y-maze, and (b, d, f) step-through latency at recall session of passive avoidance. The mice were treated with methyllycaconitine (MLA, 1 or 3 mg/kg IP), dihydro-ß-erythroidine (DHßE, 1 or 3 mg/kg IP), or NE100 (1 mg/kg IP), simultaneously with compound 3b (0.1 mg/kg IP) 10 min before scopolamine (S, 0.5 mg/kg SC), 20 min before behavioural session. ANOVA: F(5.87)=7.19, p<0.0001 at (a); H=31.3, p<0.0001 at (b); F(5.82)=5.82, p<0.0001 at (c); H=28.8, p<0.0001 at (d); F(4.77)=10.0, p<0.0001 at (e); H=30.5, p<0.0001 at (f); n=12-17 per group. *p<0.05, **p<0.01, ***p<0.001 compared with group (Sc.Aβ+V); #p<0.05, ##p<0.01, ###p<0.001 compared with group (Aβ25-35+V); Dunnett test at (a, b) and Dunn at (c, d).
# The animals were tested for spontaneous alternation performance in a Y-maze, an index of spatial working memory. The Y-maze was in grey PVC. Each arm was 40 cm long, 13 cm high, 3 cm wide at the base and 10 cm wide in the upper part, and converging at an equal angle. Each mouse was placed at one end of an arm and was able to move freely through the maze during an 8-min session. The series of arm entries, including any returns in the same arm were visually analysed. Alternation is defined as being consecutive entries in three different arms. The maximum number of alternations is therefore the total number of arm entries less two, and alternation percentage is calculated as (actual alternations/maximum possible alternations)×100. […]
# Finally, a first mechanistic analysis of the pharmacological effect in vivo of compound 3b was carried out. With the objective of confirming that the compound, neuroprotective against amyloid toxicity, could also be anti-amnesic in a pharmacological amnesia model, we first determined its effectiveness against the amnesic effects of scopolamine. […]
# [2] = test system: APPSwe mice; test: Object recognition test, APPSwe mice; type: in vivo; settings: 2-month treatment
# Method: FIG. 9: Spatial learning in pool (a-c) and object recognition (d-f) for APPSwe mice after 2-month treatment with compound 3b. Pool: acquisition profiles of WT mice treated with V and 3b (2 mg/kg) (a) or APPSwe mice (b). (c) Presence in training quadrant (T) and mean in the other quadrants (o) during trial test performed 48 h after the last training session. Friedman non-parametric ANOVA with repeated measures: Fr=21.7, p<0.001 for the group WT/V, Fr=21.8, p<0.001 for the group WT/3b at (a); Fr=13.0, p<0.05 for group APPSwe/V, Fr=12.2, p<0.05 for group APPSwe/3b at (b). […]
# The apparatus consisted of four square-shaped arenas (50 cm×50 cm×50 cm in height) made of white plexiglass and placed on a platform equipped with infrared light-emitting diodes (IR). The locomotor activity of the animal and position of the nose were able to be captured by an IR-sensitive camera and analysed using Videotrack and Nosetrack software. […] Each mouse was placed in the open field and exploratory activity and nose position were recorded for 10 min. Activity was analysed in terms of number of contacts with the objects and contact time. […] Each mouse was again placed in the open field and exploratory activity recorded for 10 min. Activity was analysed in similar manner. […]
SMILES,effective dose (anti-amnesic) [1] [mg/kg],"decrease in number of contacts with objects, APPSwe animals ([2]; 1 mg/kg/d)","deficit of novel object preference (contacts, contact time), APPSwe animals ([2]; session 3)"
"CC1(C)COP(=O)(c2cccc(Cl)c2)C(C)(C)N1 (racemic) [Compound 3b, (±)-2-(3-Chlorophenyl)-2-oxo-3,3,5,5-tetramethyl-[1,4,2]-oxazaphosphinane]",0.1,–,–
"CC1(C)COP(=O)(c2ccc(Cl)cc2)C(C)(C)N1 (racemic) [Compound 3c, (±)-2-(4-Chlorophenyl)-2-oxo-3,3,5,5-tetramethyl-[1,4,2]-oxazaphosphinane]",–,blocked,significantly blocked or attenuated
